Read-outs that look alike come from different tables or passages of the source.
Columns and labels:
Carrageenin test in rats = experiment: anti-inflammatory activity, Carrageenin test in rats (Winter et al. 1962); format: in vivo, rat; conditions: read-out: Antiinflammatory activity
From the text: (§1) The compounds show an outstanding analgesic activity, especially upon oral application versus the brewer's yeast test in rat as described by Winter et al. (J. Pharm. Exp. Ther., 150(1), 165-171, 1965). Also these compounds have shown anti-inflammatory activity especially upon oral application versus the Carrageenin test in rats as described by Winter et al. (Proc. Soc. Exp. Biol. Med., 111, 544-547, 1962). The results for the analgesic evaluation are expressed as ED50 and those for the anti-inflammatory evaluation expressed as the activity rate observed on administering the compounds at a dose of 5 mg/kg.

[1] = tested on: brewer's yeast test in rat; experiment: analgesic activity, brewer's yeast test in rat (Winter et al. 1965); format: in vivo; conditions: read-out: Analgesic activity ED50
From the text: as §1

[2] = acute oral toxicity LD50 in mice (Reed-Muench method modified by Pizzi); conditions: mouse, in vivo; oral administration to mice; as free base
From the text: Moreover, the above compounds have shown a low toxicity which makes them useful in therapy. […] Evaluation was made according to the method by Reed-Muench as modified by Pizzi (Human & Biology, 22(3), 151-190, 1950) by oral administration to mice.

[3] = brewer's yeast test, rat, oral, as free base
[4] = Carrageenin test, rat, oral, dose of 5 mg/kg, as free base

| Compound | inhibition in vivo at 5 mg/kg (Carrageenin test in rats; Rattus norvegicus, po) [%] | ED50 [1, 3] [mg/kg] | ED50 ([1]; Rattus norvegicus, po) [mg/kg] | inhibition in vivo at 5 mg/kg (Carrageenin test in rats; [4]) [%] | LD50 [2] [mg/kg] |
| --- | --- | --- | --- | --- | --- |
| CC(=O)Oc1ccccc1C(=O)O [Acetylsalycilic acid, acetylsalicylic acid, reference compound] | 23.2 | 73 |  |  |  |
| O=C(OCCN1CCN(c2cccc(C(F)(F)F)c2)CC1)c1ccccc1Nc1ccnc2cc(C(F)(F)F)ccc12 [Antrafenine, reference compound] | 3.6 |  | 43 |  |  |
| O=C(OCCN1CCCC1)c1ccccc1Nc1ccnc2cc(Cl)ccc12 [Example 1, 2-Pyrrolidinylethyl 2-(7-chloro-4-quinolyl)aminobenzoate] |  | 38 |  | 35.6 | 2000 |
| O=C(OCCN1CCCC1)c1ccccc1Nc1ccnc2cc(C(F)(F)F)ccc12 [Example 2, 2-Pyrrolidinylethyl 2-(7-trifluoromethyl-4-quinolyl)aminobenzoate] |  | 2.9 |  | 38 | 630 |
| O=C(OCCN1CCCCC1)c1ccccc1Nc1ccnc2cc(Cl)ccc12 [Example 3, 2-Piperidinylethyl-2-(7-chloro-4-quinolyl)aminobenzoate] |  | 67 |  | 23.1 | > 2000 |
| O=C(OCCN1CCCCC1)c1ccccc1Nc1ccnc2cc(C(F)(F)F)ccc12 [Example 4, 2-Piperidinylethyl 2-(7-trifluoromethyl-4-quinolyl)aminobenzoate] |  | 3 |  | 23.2 | 635 |
| O=C(OCCN1CCCCCC1)c1ccccc1Nc1ccnc2cc(Cl)ccc12 [Example 5, 2-Homopiperidinylethyl 2-(7-chloro-4-quinolyl)aminobenzoate] |  | 5.4 |  | 17.3 |  |
| O=C(OCCN1CCCCCC1)c1ccccc1Nc1ccnc2cc(C(F)(F)F)ccc12 [Example 6, 2-Homopiperidinylethyl 2-(7-trifluoromethyl-4-quinolyl)aminobenzoate] |  | 7 |  | 27.9 |  |
| O=C(OCCOCCN1CCCC1)c1ccccc1Nc1ccnc2cc(Cl)ccc12 [Example 7, 2-(2-Pyrrolidineethoxy)ethyl 2-(7-chloro-4-quinolyl)aminobenzoate] |  | 18.5 |  | 5.1 |  |
| O=C(OCCOCCN1CCCC1)c1ccccc1Nc1ccnc2cc(C(F)(F)F)ccc12 [Example 8, 2-(2-Pyrrolidineethoxy)ethyl 2-(7-trifluoromethyl-4-quinolyl)aminobenzoate] |  | 14.7 |  | 26.2 |  |
| O=C(OCCOCCN1CCCCC1)c1ccccc1Nc1ccnc2cc(Cl)ccc12 [Example 9] |  | 21.7 |  | 33.2 |  |
| O=C(OCCOCCN1CCCCCC1)c1ccccc1Nc1ccnc2cc(Cl)ccc12 [Example 11, 2-(2-Homopiperidineethoxy)ethyl 2-(7-chloro-4-quinolyl)aminobenzoate] |  | 13.3 |  | 21.2 |  |
| O=C(OCCOCCN1CCCCCC1)c1ccccc1Nc1ccnc2cc(C(F)(F)F)ccc12 [Example 12, 2-(2-Homopiperidineethoxy)ethyl 2-(7-trifluoromethyl-4-quinolyl)aminobenzoate] |  | 6.6 |  | 28.8 |  |
| O=C(OCC1CCCCO1)c1ccccc1Nc1ccnc2cc(Cl)ccc12 (stereo not shown) [Example 14, 2-Tetrahydropyranylmethyl 2-(7-chloro-4-quinolyl)aminobenzoate] |  | 22 |  | 19.5 |  |
| O=C(OCC1CCCCO1)c1ccccc1Nc1ccnc2cc(C(F)(F)F)ccc12 (stereo not shown) [Example 15, 2-Tetrahydropyranylmethyl 2-(7-trifluoromethyl-4-quinolyl)aminobenzoate] |  | 9.3 |  | 26.1 |  |
| O=C(OCOCc1ccccc1)c1ccccc1Nc1ccnc2cc(Cl)ccc12 [Example 16, Benzyloxymethyl 2-(7-chloro-4-quinolyl)aminobenzoate] |  | 6.3 |  | 27.7 | > 8000 |
| O=C(OCOCc1ccccc1)c1ccccc1Nc1ccnc2cc(C(F)(F)F)ccc12 [Example 17, Benzyloxymethyl 2-(7-trifluoromethyl-4-quinolyl)aminobenzoate] |  | 64.5 |  | 30.5 |  |
| O=C(OCOC(=O)c1ccccc1Nc1ccnc2cc(Cl)ccc12)c1ccccc1 [Example 18, Benzoyloxymethyl 2-(7-chloro-4-quinolyl)aminobenzoate] |  | 82.5 |  | 31 |  |
| O=C(OCOC(=O)c1ccccc1Nc1ccnc2cc(C(F)(F)F)ccc12)c1ccccc1 [Example 19, Benzoyloxymethyl 2-(7-trifluoromethyl-4-quinolyl)aminobenzoate] |  | 3.8 |  | 30.5 |  |
| O=C(OC1OC(=O)c2ccccc21)c1ccccc1Nc1ccnc2cc(Cl)ccc12 (stereo not shown) [Example 20, 1(3H)-isobenzofuranone-3-yl 2-(7-chloro-4-quinolyl)aminobenzoate] |  | 71 |  | 26.2 |  |
| O=C(OC1OC(=O)c2ccccc21)c1ccccc1Nc1ccnc2cc(C(F)(F)F)ccc12 (stereo not shown) [Example 21, 1(3H)-isobenzofuranone-3-yl 2-(7-trifluoromethyl-4-quinolyl)aminobenzoate] |  | 26 |  | 38.4 |  |
| O=C(OCC(O)CO)c1ccccc1Nc1ccnc2c(C(F)(F)F)cccc12 (stereo not shown) [Floctafenine, reference compound] |  | 2.2 |  | 21.6 |  |
| O=C(OCC(O)CO)c1ccccc1Nc1ccnc2cc(Cl)ccc12 (stereo not shown) [Glafenine, reference compound] | 25.6 |  | 26.5 |  | 2100 |
